Eight molecules from patent US9061041B2, “2′-substituted nucleoside derivatives and methods of use thereof for the treatment of viral diseases” (Merck Sharp & Dohme Corp., priority 2011, dated 2015) can be followed below.

In series [1] the target is HCV NS5B RNA-dependent RNA polymerase (1b-BKΔ55) (Hepatitis C virus genotype 1b (isolate BK) (HCV), UniProt P26663). Description: biochemical.
Series [2] concerns human cryopreserved hepatocyte. It counts as in vitro ADME. The conditions noted are these: human hepatocytes, NTP level over Ki.
Experimental: A 2 mM stock solution of the prodrug test compound is prepared in 5% DMSO/95% MeOH to provide a final sample concentration of 10 μM. A 5 μL aliquot is removed from this stock solution and added to 1 mL of either a rat or human cryopreserved hepatocyte sample to provide a control sample at a concentration of 1 million cells/mL. This sample is assayed in triplicate and used as a test sample.
Human and rat hepatocytes are removed from liquid nitrogen storage and thawed by submerging the hepatocyte tube into a pre-heated 37° C. waterbath and gently shaking the tube back & forth until thawed. The thawed hepatocytes are then gently poured into a container of Hepatocyte Basal Medium (50 mL, pre-warmed to 37° C.) and washed. […]
A 1 mL aliquot is removed from the 1 million cells/mL final hepatocyte suspension, analyzed in triplicate and placed into 20 mL scintillation vial without a cap. […]
The incubated hepatocyte suspension samples are transferred to a micro-centrifuge tube using a transfer pipette and centrifuged at 500 rpm for 4 minutes at room temperature. […] The resulting extract solution is then stored in a refrigerator at 4° C. until ready for use, at which point the sample is first subjected to vortexing/sonication to ensure that all hepatocyte cells have burst. […]
For series [3], the system named is replicon cells (1b-Con1). Description: Replicon activity assay (1b-Con1). It is filed as cell-based, HCV. The settings on record: Hepatitis C virus, 72 h, three days post-dosing. (In antiviral work, replicon cells carry a viral genome segment that copies itself.)
For series [4], the system named is replicon cells (1b-Con1). In words: Cytotoxicity MTS assay in replicon cells. The settings on record: CC50, MTS assay, three days post dosing.

Sequence of HCV NS5B RNA-dependent RNA polymerase (1b-BKΔ55) (P26663 2420-2955): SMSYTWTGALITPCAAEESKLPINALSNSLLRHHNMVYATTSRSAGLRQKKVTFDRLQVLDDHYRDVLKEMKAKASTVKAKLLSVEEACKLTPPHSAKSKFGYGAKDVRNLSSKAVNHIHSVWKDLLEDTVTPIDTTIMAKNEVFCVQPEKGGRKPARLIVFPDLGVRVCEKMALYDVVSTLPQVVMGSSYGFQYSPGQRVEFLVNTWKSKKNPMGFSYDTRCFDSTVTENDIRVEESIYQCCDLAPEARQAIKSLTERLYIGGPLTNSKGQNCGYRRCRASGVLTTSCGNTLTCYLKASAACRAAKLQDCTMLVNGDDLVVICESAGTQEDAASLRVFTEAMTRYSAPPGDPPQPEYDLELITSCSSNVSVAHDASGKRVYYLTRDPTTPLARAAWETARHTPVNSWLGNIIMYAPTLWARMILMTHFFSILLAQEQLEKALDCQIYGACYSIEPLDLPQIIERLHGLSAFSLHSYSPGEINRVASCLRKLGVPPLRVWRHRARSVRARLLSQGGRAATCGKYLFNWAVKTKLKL

For the molecule `C[C@@]1(N)[C@H](O)[C@@H](COP(=O)(O)OP(=O)(O)OP(=O)(O)O)O[C@H]1n1cnc2c(=O)[nH]c(N)nc21` [Compound 80], 600 nM corresponded to half-maximal inhibition in series [1] (IC50). This lies in the sub-micromolar range. Same read-out and setting: for `C[C@@]1(N)[C@H](O)[C@@H](COP(=O)(O)OP(=O)(O)OP(=O)(O)O)O[C@H]1n1ccc(N)nc1=O` [Compound 81] the value was 2300 nM; for `C[C@@]1(N)[C@H](O)[C@@H](COP(=O)(O)OP(=O)(O)OP(=O)(O)O)O[C@H]1n1ccc(=O)[nH]c1=O` [Compound 82], 13000 nM. Take `CCOC(=O)[C@H](C)NP(=O)(OC[C@H]1O[C@@H](n2cnc3c(OC)nc(N)nc32)[C@](C)(N)[C@@H]1O)Oc1ccccc1` (some centres unmarked) [drawing 225]: in series [2], the “Human Hepatocyte NTP (4 hour at 10 μM)/Ki” value is on record as 32 x. On the same count and under the same terms, for `CC(C)OC(=O)[C@H](C)NP(=O)(OC[C@H]1O[C@@H](n2ccc(=O)[nH]c2=O)[C@](C)(N)[C@@H]1O)Oc1ccccc1` (some centres unmarked) [drawing 226] the value was 30 x. For the molecule `CCOc1nc(N)nc2c1ncn2[C@@H]1O[C@H](COP(=O)(N[C@@H](C)C(=O)OC)Oc2ccccc2)C(O)[C@@]1(C)N` (some centres unmarked) [drawing 243], the concentration for a half-maximal effect (EC50) (in general, the concentration at which the effect is half-maximal) in series [3] came out at 2500 nM. Further, in series [4], the Cytotoxicity is over 100 µM. Regarding `C[C@@]1(N)[C@@H]2OP(=O)(OC3CCC3)OC[C@H]2O[C@H]1n1ccc(N)nc1=O` (some centres unmarked) [drawing 247], the EC50 in series [3] came out at 2800 nM. The Cytotoxicity in series [4] was over 50 µM. In series [3], `CCOC(=O)[C@H](C)NP(=O)(OC[C@H]1O[C@@H](n2cnc3c(OC)nc(N)nc32)[C@](C)(N)[C@@H]1O)Oc1ccccc1` (some centres unmarked) [drawing 248] yielded an EC50 of 100 nM. In addition, the Cytotoxicity in series [4] was over 100 µM.
